Data: US11045486B2, “Therapeutic method and therapeutic agent for atopic dermatitis in animals” (priority 2015, dated 2021)
“Also recorded” adds a separate entry of the source.

What was measured:
canine atopic dermatitis [1] = assay: CADLI index (skin lesion score) in dogs with atopic dermatitis before and after drug administration; format: in vivo, dog; settings: for effect of improving clinical symptoms of canine atopic dermatitis: 127 dogs, single agents 30 days each, combination up to 60 days, compared with before administration; for CADLI score, average value and standard error / CADLI score, average value (standard error): 30-days administration; for CADLI score, average value (standard error): all 127 dogs, oral with meals every 12 hours (RXM 5 mg/kg, PTX 25 mg/kg), prior to administration 33.17
Source text: The CADLI index used in the present specification is an index representing the skin condition of atopic dermatitis, and the skin condition of the five parts of the body is scored by estimating erythema, scratch, erosion, alopecia, lichenification, hyperpigmentation (Non-Patent Document 14). Therefore, the highest point is 50 points, and closer to 50 points the skin inflammation is becoming more severe. […] This figure decreased to 12.04±1.11 after 30 days of dosing and 6.51±1.51 after 60 days, and it was remarkable for all 127 cases (100%). To be able to obtain remission of symptoms with high probability. […] Target animals: For five years from 2010 to 2015, at Gotofu Animal Hospital (1-1-3, […], Fukuoka City, Fukuoka Prefecture), among dogs diagnosed as atopic dermatitis of dogs by diagnostic criteria announced by Dr. Favrot in 2010 (non patent literature 15), the examinations were conducted for 127 dogs for which the consent and cooperation of treatment were obtained from the family and whose sum of SQK were larger than the sum of SLK of the 5 parts, whose SLK and SQK value were calculated for 5 parts of the neck, the fossa, the back, the forearm, and the lower leg. As content of implementation items, in all 127 cases, roxithromycin was administered as a single agent for 30 days, and pentoxifylline was administered as a single agent for the next 30 days. During the last 60 days, roxithromycin and pentoxifylline were administered in combination. The constituent of the targeted dog type is as shown in (Table 1). The constituent of the gender was 57 males (35 castrated with 35 male), 70 females (35 contraceptives already) (Table 1). Methods: In all 127 cases, 5 mg/kg of roxithromycin alone was orally administered with meals every 12 hours for the first 30 days. For the next 30 days, pentoxifylline alone was orally administered at 25 mg/kg with meals every 12 hours. For the next 60 days, 5 mg/kg of roxithromycin and 25 mg/kg of pentoxifylline were orally administered simultaneously with meals every 12 hours. After that, administration of roxithromycin and pentoxifylline was discontinued and a follow-up study was conducted for 30 days. For all treatment periods, meals were allowed to feed freely without restriction. Also, shampoo was carried out at home once a week. Local corticosteroid therapy was performed at any time as long as there was a strong itching lesion After measurement, roxithromycin (RXM) was administered as a single agent for 30 days. After administration, CADLI index was measured to ascertain the skin condition, and it was judged whether roxithromycin has the ability to improve atopic dermatitis by comparing the change of numerical values before and after medication. Similarly, for pentoxifylline (PTX), it was estimated whether pentoxifylline has the effect of improving canine atopic dermatitis by measuring the CADLI index as an index and comparing the values before and after administration. Finally, for administration of roxithromycin and pentoxifylline in combination, the CADLI index was measured on the 30th and 60th days of administration, respectively, and the effect of the drug was evaluated by comparing the values.

canine atopic dermatitis [2] = settings: 7 out of 37 dogs with canine atopic dermatitis; cited from earlier work
[3] = breed West Highland white terrier

Compound | effect of improving clinical symptoms of canine atopic dermatitis (canine atopic dermatitis [1]) | CADLI score, average value and standard error (canine atopic dermatitis [1]; age 4 years-6 years of age) | CADLI score, average value and standard error (canine atopic dermatitis [1]; age 7 years-9 years of age) | CADLI score, average value and standard error (canine atopic dermatitis [1]; age 10 years-12 years of age) | CADLI score, average value and standard error (canine atopic dermatitis [1]; age Over 13 years of age) | CADLI score, average value and standard error (canine atopic dermatitis [1]; age Under 3 years of age) | CADLI score, average value (standard error) (canine atopic dermatitis [1]) | CADLI score, average value and standard error (canine atopic dermatitis [1]; breed Chihuahua) | CADLI score, average value and standard error (canine atopic dermatitis [1]; breed Miniature dachschund) | CADLI score, average value and standard error (canine atopic dermatitis [1]; breed Mongrel) | CADLI score, average value and standard error (canine atopic dermatitis [1]; breed Others) | CADLI score, average value and standard error (canine atopic dermatitis [1]; breed Pug) | CADLI score, average value and standard error (canine atopic dermatitis [1]; breed Shiba) | CADLI score, average value and standard error (canine atopic dermatitis [1]; breed Shih Tzu) | CADLI score, average value and standard error (canine atopic dermatitis [1]; breed Toy Poodle) | CADLI score, average value and standard error (canine atopic dermatitis [1]; breed Welsh Corgi) | CADLI score, average value and standard error (canine atopic dermatitis [1]; [3]) | CADLI score, average value and standard error (canine atopic dermatitis [1]; breed Yorkshire Terrier) | CADLI score, average value and standard error (canine atopic dermatitis [1]; sex Castrated male) | CADLI score, average value and standard error (canine atopic dermatitis [1]; sex Female) | other results
CC(=O)CCCCn1c(=O)c2c(ncn2C)n(C)c1=O [PTX, Pentoxifylline] | no therapeutic effect to improve atopic dermatitis in dogs; also recorded: unable to confirm the effect of improving the symptoms of atopic dermatitis in dogs | 32.38 ± 3.01 | 32.95 ± 3.47 | 34.61 ± 2.84 | 31.68 ± 3.93 | 33.94 ± 4.74 | 33.09 | 31.00 ± 9.01 | 28.64 ± 4.11 | 36.00 ± 6.08 | 35.26 ± 3.66 | 35.60 ± 3.48 | 34.93 ± 4.45 | 32.94 ± 3.09 | 36.86 ± 5.42 | 31.50 ± 6.11 | 34.40 ± 7.91 | 22.29 ± 7.94 | 32.63 ± 2.87 | 32.43 ± 3.13 | CADLI score, average value (standard error) (canine atopic dermatitis [1]; listed as pentoxifylline): 33.09±1.52; CADLI score, average value and standard error (canine atopic dermatitis [1]; sex Male): 35.41 ± 3.40; CADLI score, average value and standard error (canine atopic dermatitis [1]; sex Spayed female): 32.74 ± 2.98; patients in which single administration of pentoxifylline was effective (canine atopic dermatitis [2]): 19%
CC[C@H]1OC(=O)[C@H](C)[C@@H](O[C@H]2C[C@@](C)(OC)[C@@H](O)[C@H](C)O2)[C@H](C)[C@@H](O[C@@H]2O[C@H](C)C[C@H](N(C)C)[C@H]2O)[C@](C)(O)C[C@@H](C)/C(=N\OCOCCOC)[C@H](C)[C@@H](O)[C@]1(C)O [RXM, Roxithromycin] | did not seem to have sufficient therapeutic effect to improve atopic dermatitis in dogs; also recorded: no effect of improving canine atopic dermatitis | 32.75 ± 2.82 | 33.55 ± 3.54 | 35.18 ± 2.89 | 32.32 ± 4.07 | 34.72 ± 4.91 | 33.64 | 31.67 ± 9.18 | 29.00 ± 4.24 | 36.57 ± 6.25 | 36.16 ± 3.50 | 35.30 ± 3.63 | 35.60 ± 4.44 | 33.39 ± 2.88 | 37.57 ± 5.51 | 31.50 ± 6.98 | 35.00 ± 8.08 | 23.00 ± 8.56 | 33.23 ± 2.97 | 32.71 ± 2.96 | CADLI score, average value (standard error) (canine atopic dermatitis [1]; listed as roxithromycin): 33.64±1.51; CADLI score, average value and standard error (canine atopic dermatitis [1]; sex Male): 36.41 ± 3.28; CADLI score, average value and standard error (canine atopic dermatitis [1]; sex Spayed female): 33.23 ± 3.01
